According to US7064206B1 (University of Kentucky Research Foundation, priority 2003, dated 2006):

Columns and labels:
[1] = Non-enzymatic decomposition of the glycinate ester prodrug at physiological pH; type: physicochemical; details: pH of 7 or above
From the text: 4 arose by a competitive intermolecular reaction to the lactam intermediate and reacted to release both 5 and 6.

human glioma = details: murine model; cited from earlier work
[2] = human blood, cited from earlier work
[3] = target: T1, topoisomerase I cleavage complexes (Homo sapiens, UniProt P11387); details: cell-free; vs camptothecin or SN-38; cited from earlier work
T1 sequence (P11387 1-765): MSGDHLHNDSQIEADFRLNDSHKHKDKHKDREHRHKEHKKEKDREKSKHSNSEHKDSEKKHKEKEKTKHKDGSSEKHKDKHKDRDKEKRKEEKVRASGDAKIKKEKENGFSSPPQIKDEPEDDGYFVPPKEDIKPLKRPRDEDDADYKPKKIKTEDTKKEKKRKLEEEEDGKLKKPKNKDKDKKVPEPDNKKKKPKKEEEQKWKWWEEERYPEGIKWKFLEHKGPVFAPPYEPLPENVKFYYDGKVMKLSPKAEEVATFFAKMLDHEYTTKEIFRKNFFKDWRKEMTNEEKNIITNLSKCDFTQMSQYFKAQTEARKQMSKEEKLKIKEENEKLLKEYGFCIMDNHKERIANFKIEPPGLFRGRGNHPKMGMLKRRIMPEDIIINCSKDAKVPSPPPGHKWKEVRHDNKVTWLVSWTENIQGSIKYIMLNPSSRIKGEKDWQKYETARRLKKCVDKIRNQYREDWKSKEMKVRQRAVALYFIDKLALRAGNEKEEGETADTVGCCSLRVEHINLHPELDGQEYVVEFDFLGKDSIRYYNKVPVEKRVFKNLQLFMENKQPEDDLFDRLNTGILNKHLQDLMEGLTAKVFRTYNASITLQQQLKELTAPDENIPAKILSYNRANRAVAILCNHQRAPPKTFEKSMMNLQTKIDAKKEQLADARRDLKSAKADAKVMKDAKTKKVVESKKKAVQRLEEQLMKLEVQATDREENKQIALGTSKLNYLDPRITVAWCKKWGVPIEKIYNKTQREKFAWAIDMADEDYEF

[4] = target: human serum albumin (HSA) (Homo sapiens, UniProt P02768); details: cited from earlier work
Chain of human serum albumin (HSA) (P02768 25-609): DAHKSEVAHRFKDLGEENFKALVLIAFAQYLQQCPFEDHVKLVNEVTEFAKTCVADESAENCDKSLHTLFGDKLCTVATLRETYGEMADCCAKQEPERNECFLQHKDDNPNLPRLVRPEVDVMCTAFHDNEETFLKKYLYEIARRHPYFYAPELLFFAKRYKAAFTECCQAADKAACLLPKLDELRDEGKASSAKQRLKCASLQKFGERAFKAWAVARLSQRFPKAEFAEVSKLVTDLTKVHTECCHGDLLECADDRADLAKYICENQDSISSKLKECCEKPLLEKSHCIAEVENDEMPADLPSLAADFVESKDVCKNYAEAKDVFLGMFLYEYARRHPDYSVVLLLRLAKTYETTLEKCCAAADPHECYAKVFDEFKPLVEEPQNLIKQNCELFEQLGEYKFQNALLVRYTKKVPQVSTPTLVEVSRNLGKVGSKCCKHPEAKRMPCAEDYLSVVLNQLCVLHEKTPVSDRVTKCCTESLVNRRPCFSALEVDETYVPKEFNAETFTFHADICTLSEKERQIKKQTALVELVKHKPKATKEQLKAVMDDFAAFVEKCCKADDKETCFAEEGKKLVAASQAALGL

[5] = Stability of free and liposomal prodrug in whole blood

## CC[C@@]1(OC(=O)CN)C(=O)OCc2c1cc1n(c2=O)Cc2c-1nc1ccc(O)cc1c2[Si](C)(C)C(C)(C)C [DB-67 20(S)-glycinate ester]
[1]
  decomposition at physiological pH: rapid and convenient non-enzymatic decomposition process that releases active DB-67

## CC[C@@]1(O)C(=O)OCc2c1cc1n(c2=O)Cc2c-1nc1ccc(O)cc1c2[Si](C)(C)C(C)(C)C [DB-67, 7-t-butyldimethylsilyl-10-hydroxycamptothecin]
Human glioma
  activity against human glioma: display activity against human glioma
[2]
  % lactone at equilibrium: 30%
[2]; lactone hydrolysis
  t1/2: 2.17 h
[3]
  stability of topoisomerase I cleavage complexes: more stable topoisomerase I cleavage complexes than camptothecin or SN-38
[4]
  association of carboxylate form with the high affinity carboxylate binding pocket on HSA: blocks the associations

## CCc1c2c(nc3ccc(O)cc13)-c1cc3c(c(=O)n1C2)COC(=O)[C@]3(O)CC [SN-38]
[4]
  association of carboxylate form with the high affinity carboxylate binding pocket on HSA: block SN-38 from associating

## Camptothecin
[4]; lactone form
  affinity of lactone form for HSA: moderate affinity

## DB-67 4-aminobutanoate ester
[5]
  decomposition of free prodrug: extensive
